We go through 12 substances from US9388389B2, “JFH-1 based HCV cell culture systems for NS5A of genotypes 1-7” (Hvidovre Hospital, priority 2009, dated 2016).

Several values for one entry are separate records, joined by “and”; a condition that tells them apart may be missing. Identical values can stand only once.

The test system of series [1] is Huh7.5 cells. Put plainly: Spread of infection in culture, anti-Core immunostaining. It is filed as cell-based. The settings on record: for spread in culture / to the majority of culture, day after transfection: Huh7.5 cells, after transfection of RNA transcripts; for percentage of culture infected: day 8 after transfection. As to the method: (§1) Culturing of Huh7.5 cells was done as described by Gottwein et al. 2007. One day prior to transfection or infection, naïve Huh7.5 cells were plated at 4×10^5/well in 6-well plates. In vitro transcription was carried out for 2 hours with T7 RNA polymerase (Promega) on 5 μg plasmid linearized with XbaI and treated with Mung Bean Nuclease (New England Biolabs, Beverly, Mass., USA) to yield the exact HCV 3′ end. For transfection, 2.5 μg of unpurified RNA transcripts were incubated with 5 μL Lipofectamine2000™ (Invitrogen) in 500 μL Opti-MEM (Invitrogen) for 20 min at room temperature. RNA-Lipofectamine2000™ transfection complexes were left on cells for 16-24 hours before washing. For infection, virus-containing supernatant was left on cells for 6-24 hours. Supernatants collected during experiments were sterile filtered and stored at −80° C.
(§2) Anti-Core immunostaining was done with mouse anti-HCV Core protein monoclonal antibody (B2) (Anogen Mississauga, Ontario, Canada) as primary antibody and Alexa Fluor 594 goat anti-mouse IgG (H+L) (Invitrogen) as secondary antibody. HCV RNA titers were determined by a TaqMan™ real-time PCR assay. Infectivity titers were determined as follows: 6×10^3 naïve Huh7.5 cells were plated per well in a poly-D-lysine coated 96-well plate (Nunc) one day before inoculation with three replicates of individual 10-fold dilutions of cell culture supernatants. Inocula were left on cells for 48 hours and cells were fixed using ice could methanol. After washing, blocking buffer (1% BSA, 0.2% skim milk) was added for 20 min and endogenous peroxidases were inhibited by application of H2O2 for 5 min. Primary antibody (anti-NS3, clone H26, Abcam, Cambridge, UK) diluted 1:1000 was left on cells for 3-4 days. Secondary antibody was ECL anti-mouse IgG HRP-linked whole antibody (GE Healthcare Amersham, Brondby, Denmark). Staining was developed using DAB substrate kit (DAKO, Glostrup, Denmark). The number of focus-forming units (FFU) per well were counted manually (dilutions with 5-100 FFU counted) or automatically. Automatic counting was performed on an ImmunoSpot Series 5 UV Analyzer™ (CTL Europe GmbH, Aalen, Baden-Württemberg, DE) with customized software. From FFU counts in experimental wells, the mean of spot counts of negative control wells was subtracted (typically around 5 spots).

Series [2] relates to Huh7.5 cells. In words: Infectivity titers (FFU) in supernatant after RNA transfection or viral passage. The format is cell-based. The following applies: for 1st passage Log(FFU/mL) / Transfection Log(FFU/mL): Table 1b; for 1st passage Log(FFU/mL): maximum infectivity titer, two values separated by slash = two independent passages; for Peak titers Transfection Log (FFUs/mL) / Peak titers Viral passage Log (FFUs/mL): Table 2; for Peak titers Transfection Log (FFUs/mL): maximum infectivity titer observed in transfection experiments; for Peak titers Viral passage Log (FFUs/mL): maximum infectivity titer observed in viral passage experiments; for Transfection Log(FFU/mL): maximum infectivity titer after transfection, Core-NS2 and NS5A of same genotype. How it is done: (§3) To determine the efficiency of the developed system, HCV RNA titers are determined in IU/ml (international units/ml) with Taq-Man Real-Time-PCR and infectious titers are determined with a focus-forming units (FFU) method: in this method, infectivity titers are determined by infection of cell culture replicates with serial dilutions of virus containing supernatants and, following immuno-stainings for HCV antigens, counting of HCV-antigen positive cell foci. Alternatively the infectious titers are determined as 50% tissue culture infectious dose.
as §1, §2

Series [3] relates to Huh7.5 cells. In words: HCV RNA titers by TaqMan real-time PCR. The format is cell-based. The following applies: for 1st passage Log(IU/mL): Table 1b, maximum HCV RNA titer, two values separated by slash = two independent passages; for Peak titers Viral passage Log (IU/mL): Table 2, maximum HCV RNA titer in all passage samples analyzed. How it is done: as §3, §2
(In general: In qPCR the cycle at which signal appears reflects the starting amount.)

The test system of series [4] is Huh7.5 cells. Put plainly: Genetic stability, direct sequencing of complete ORF after passage. The following applies: Table 2; ORF sequenced after passage to naïve cells. As to the method: RNA was extracted from cell culture supernatant using (Highly Pure Viral Nucleic Acid Kit™, Roche, Mannheim, Del.). RT-PCR was done using SuperScriptIII™ (Invitrogen, Carlsbad, Calif., USA). In 1st round PCR the Advantage 2 PCR Enzyme System was used. Cycle parameters were 35 s at 99° C., 30 s at 67° C. and 10 min (cycle 1-5), 11 min (cycle 6-15), 12 min (cycle 16-25) or 13 min (cycle 26-35) at 68° C. 12˜1 kb products were synthesized in overlapping nested PCRs covering the entire ORF using primer pairs as previously described. Primer pairs 8, 9 and 10 were modified to the genotype specific NS5A sequence (Table 20, SEQ ID NO 163-192). Cycle parameters were 35 s at 99° C. followed by 35 cycles with 35 s at 99° C., 30 s at 67° C. and 6 min at 68° C.
All sequence reactions were performed at Macrogen Inc., Seoul, South Korea. Sequence analysis was performed with Sequencher™ (Gene Codes Corporation) Vector NTI 11 (Invitrogen) and BioEdit™ (Tom Hall, Ibis Therapeutics). HCV sequences were retrieved from the European HCV database (euHCVdb; at the http: internet location //euhcvdb.ibcp.fr/euHCVdb/) and the Los Alamos HCV sequence database (LANL; at the http: Internet location //hcv.lanl.gov/content/hcv-db/index).
Genetic stability of NS5A recombinants after passage to naïve cells. Supernatant samples from transfection culture were passaged to naïve Huh7.5 cells and the complete ORF was sequenced after spread of infection in culture to check for further need of adaptation.

Turning to “ED43/JFH1(ED43-NS5A): ED43 Core-NS2/NS5A recombinant without mutations adaptive for ED43/JFH1, SEQ ID NO 51”, in the series on Huh7.5 cells [1] (after transfection into Huh7.5 cells), the “spread / replication in culture” value is “never spread in culture”.

With “ED43/JFH12819,3269(ED43-NS5A)5270/7131: ED43 Core-NS2/NS5A recombinant with T5270C/A7131G, SEQ ID NO 193”, in the series on Huh7.5 cells [1], the “spread in culture / to the majority of culture, day after transfection” value stood at 17 days and the “percentage of culture infected” value turned out to be 30%.

Take “ED43/JFH12819, 3269(ED43-NS5A): JFH1-based recombinant with Core-NS2 and NS5A of genotype 4a ED43, SEQ ID NO 52”: in the series on Huh7.5 cells [2], the “1st passage Log(FFU/mL)” value is 1.8 Log(FFU/mL), the “Peak titers Transfection Log (FFUs/mL)” value was 2.0 Log (FFUs/mL) and the “Peak titers Viral passage Log (FFUs/mL)” value is on record as 1.8 Log (FFUs/mL). Further, in the series on Huh7.5 cells [3], the “1st passage Log(IU/mL)” value is recorded as 7.1 Log(IU/mL) and the “Peak titers Viral passage Log (IU/mL)” value is 7.1 Log (IU/mL). Besides, the “percentage of culture infected” value with Huh7.5 cells [1] is 1%. For the same substance, in the series with Huh7.5 cells [4], the Genetically stable was “No”.

Turning to “HK6a/JFH11389, 1590(HK6a-NS5A)7161: HK6a Core-NS2/NS5A recombinant with T7161A, SEQ ID NO 57”, in the series with Huh7.5 cells [2], the “Transfection Log(FFU/mL)” value was 2.7 Log(FFU/mL), the “1st passage Log(FFU/mL)” value is recorded as 3.3 Log(FFU/mL), the “Peak titers Transfection Log (FFUs/mL)” value was 2.7 Log (FFUs/mL) and the “Peak titers Viral passage Log (FFUs/mL)” value is reported as 3.3 Log (FFUs/mL).

“HK6a/JFH11389, 1590(HK6a-NS5A): JFH1-based recombinant with Core-NS2 and NS5A of genotype 6a HK6a, SEQ ID NO 56”: the “1st passage Log(IU/mL)” value with Huh7.5 cells [3] is 7.0 Log(IU/mL).

As for “J4/JFH12996, 4827(J4-NS5A)3893: J4 Core-NS2/NS5A recombinant with T3893A, SEQ ID NO 48”, in the series with Huh7.5 cells [2], the “Transfection Log(FFU/mL)” value is on record as 2.5 Log(FFU/mL), the “1st passage Log(FFU/mL)” value is recorded as <2.3 Log(FFU/mL), the “Peak titers Transfection Log (FFUs/mL)” value is 2.5 Log (FFUs/mL) and the “Peak titers Viral passage Log (FFUs/mL)” value was <2.3 Log (FFUs/mL). Besides, the Genetically stable in the series on Huh7.5 cells [4] is recorded as “Yes”.

Take “J4/JFH12996, 4827(J4-NS5A): JFH1-based recombinant with Core-NS2 and NS5A of genotype 1b J4, SEQ ID NO 47”: the “1st passage Log(FFU/mL)” value with Huh7.5 cells [2] was 1.0 Log(FFU/mL) and 1.3 Log(FFU/mL).

On to “QC69/JFH12985(QC69-NS5A): JFH1-based recombinant with Core-NS2 and NS5A of genotype 7a QC69, SEQ ID NO 58”, for which, in the series with Huh7.5 cells [2], the “Transfection Log(FFU/mL)” value is given as 2.7 Log(FFU/mL), the “1st passage Log(FFU/mL)” value is on record as 4.1 Log(FFU/mL), the “Peak titers Transfection Log (FFUs/mL)” value was 2.7 Log (FFUs/mL) and the “Peak titers Viral passage Log (FFUs/mL)” value is reported as 4.1 Log (FFUs/mL). Moreover, in the series on Huh7.5 cells [2] (naïve Huh7.5 cells), the “infectivity titers in 1st passage / after passage to naïve cells” value is on record as “above 10^3 FFU/mL”. Also, in the series with Huh7.5 cells [3], the “1st passage Log(IU/mL)” value is 7.3 Log(IU/mL) and the “Peak titers Viral passage Log (IU/mL)” value is given as 7.3 Log (IU/mL). Also, the Genetically stable in the series on Huh7.5 cells [4] was “Yes”.

Turning to “S52/JFH12718, 4550(S52-NS5A)7625: S52 Core-NS2/NS5A recombinant with T7625C, SEQ ID NO 50”, in the series on Huh7.5 cells [2], the “Transfection Log(FFU/mL)” value is 2.9 Log(FFU/mL), the “1st passage Log(FFU/mL)” value is 3.8 Log(FFU/mL), the “Peak titers Transfection Log (FFUs/mL)” value was 2.9 Log (FFUs/mL) and the “Peak titers Viral passage Log (FFUs/mL)” value is 3.8 Log (FFUs/mL). Besides, the Genetically stable in the series with Huh7.5 cells [4] is reported as “Yes”.

In the case of “S52/JFH12718, 4550(S52-NS5A): JFH1-based recombinant with Core-NS2 and NS5A of genotype 3a S52, SEQ ID NO 49”, in the series on Huh7.5 cells [2], the “Transfection Log(FFU/mL)” value is 2.1 Log(FFU/mL) and 2.4 Log(FFU/mL); the “1st passage Log(FFU/mL)” value is on record as 3.1 Log(FFU/mL). The “1st passage Log(IU/mL)” value with Huh7.5 cells [3] is given as 7.0 Log(IU/mL).

For the substance “SA13/JFH1(SA13-NS5A): SA13 Core-NS2/NS5A recombinant without mutations adaptive for SA13/JFH1, SEQ ID NO 53”, the “Transfection Log(FFU/mL)” value with Huh7.5 cells [2] is recorded as 4.0 Log(FFU/mL). The “spread in culture / to the majority of culture, day after transfection” value in the series with Huh7.5 cells [1] came to 20 days.

Turning to “SA13/JFH13405, 3696(SA13-NS5A)6284, 7604: SA13 Core-NS2/NS5A recombinant with A6275G and T7604C, SEQ ID NO 55”, in the series on Huh7.5 cells [2], the “Transfection Log(FFU/mL)” value is 4.5 Log(FFU/mL), the “1st passage Log(FFU/mL)” value is recorded as 3.8 Log(FFU/mL), the “Peak titers Transfection Log (FFUs/mL)” value is listed as 4.5 Log (FFUs/mL) and the “Peak titers Viral passage Log (FFUs/mL)” value is reported as 3.8 Log (FFUs/mL). The Genetically stable in the series with Huh7.5 cells [4] is “Yes”.
